According to ChEMBL document CHEMBL4024706 (Eur J Med Chem, 2017):

Columns and labels:
[1] = molecular target: Mitogen-activated protein kinase kinase kinase 13 (Homo sapiens) (UniProt O43283); test: Inhibition of wild-type human full length LZK (M1 to W966 residues) expressed in mammalian expression system assessed as residual activity at 1 uM by Kinomescan method relative to control
[2] = molecular target: Receptor-type tyrosine-protein kinase FLT3 (Homo sapiens) (UniProt P36888); test: Inhibition of wild-type human partial length FLT3 (V592 to Y969 residues) expressed in bacterial expression system assessed as residual activity at 1 uM by Kinomescan method relative to control
[3] = molecular target: CDK4/Cyclin D3 (Homo sapiens) (UniProt P11802+P30281); test: Inhibition of wild-type human full length CDK4/cyclinD3 (M1 to E303 residues) expressed in mammalian expression system assessed as residual activity at 1 uM by Kinomescan method relative to control
[4] = molecular target: Homeodomain-interacting protein kinase 1 (Homo sapiens) (UniProt Q86Z02); test: Inhibition of wild-type human partial length HIPK1 (M146 to I555 residues) expressed in mammalian expression system assessed as residual activity at 1 uM by Kinomescan method relative to control
[5] = molecular target: Rho-associated protein kinase 1 (Homo sapiens) (UniProt Q13464); test: Inhibition of wild-type human partial length ROCK1 (M1 to R415 residues) expressed in mammalian expression system assessed as residual activity at 1 uM by Kinomescan method relative to control
[6] = molecular target: Ephrin type-A receptor 3 (Homo sapiens) (UniProt P29320); test: Inhibition of wild-type human partial length EPHA3 (D604 to K889 residues) expressed in bacterial expression system assessed as residual activity at 1 uM by Kinomescan method relative to control
[7] = system: Proto-oncogene tyrosine-protein kinase receptor Ret (Homo sapiens), P07949 [V804L]; test: Inhibition of human partial length RET V804L mutant (E713 to D1014 residues) expressed in bacterial expression system assessed as residual activity at 1 uM by Kinomescan method relative to control
[8] = molecular target: Serine/threonine-protein kinase Chk2 (Homo sapiens) (UniProt O96017); test: Inhibition of wild-type human partial length CHEK2 (S253 to E574 residues) expressed in bacterial expression system assessed as residual activity at 1 uM by Kinomescan method relative to control
[9] = molecular target: Serine/threonine-protein kinase 4 (Homo sapiens) (UniProt Q13043); test: Inhibition of wild-type human full length MST1 (M1 to F487 residues) expressed in bacterial expression system assessed as residual activity at 1 uM by Kinomescan method relative to control
[10] = molecular target: Calcium/calmodulin-dependent protein kinase type 1G (Homo sapiens) (UniProt Q96NX5); test: Inhibition of wild-type human partial length CAMK1G (M1 to A342 residues) expressed in bacterial expression system assessed as residual activity at 1 uM by Kinomescan method relative to control
[11] = molecular target: Epidermal growth factor receptor (Homo sapiens, UniProt P00533); test: Inhibition of recombinant human N-terminal GST-tagged wild-type EGFR (695 to end residues) expressed in baculovirus infected Sf9 insect cells using poly (Glu,Tyr)4:1 as substrate pretreated for 60 mins followed by substrate addition after 1 hr by ADP-Glo luminescence assay
[12] = molecular target: Tyrosine-protein kinase Fes/Fps (Homo sapiens) (UniProt P07332); test: Inhibition of wild-type human partial length FES (I527 to R822 residues) expressed in bacterial expression system assessed as residual activity at 1 uM by Kinomescan method relative to control
[13] = molecular target: Mitogen-activated protein kinase 15 (Homo sapiens) (UniProt Q8TD08); test: Inhibition of wild-type human partial length ERK8 (M1 to P437 residues) expressed in bacterial expression system assessed as residual activity at 1 uM by Kinomescan method relative to control
[14] = molecular target: Dual specificity protein kinase CLK3 (Homo sapiens) (UniProt P49761); test: Inhibition of wild-type human full length CLK3 (M1 to R490 residues) expressed in bacterial expression system assessed as residual activity at 1 uM by Kinomescan method relative to control
[15] = molecular target: Calcium/calmodulin-dependent protein kinase type II subunit gamma (Homo sapiens) (UniProt Q13555); test: Inhibition of wild-type human partial length CAMK2G (R9 to A303 residues) expressed in bacterial expression system assessed as residual activity at 1 uM by Kinomescan method relative to control
[16] = molecular target: Serine/threonine-protein kinase pim-1 (Homo sapiens) (UniProt P11309); test: Inhibition of wild-type human partial length PIM1 (A15 to K313 residues) expressed in bacterial expression system assessed as residual activity at 1 uM by Kinomescan method relative to control
[17] = molecular target: Platelet-derived growth factor receptor alpha (Homo sapiens) (UniProt P16234); test: Inhibition of wild-type human partial length PDGFRA (V575 to D1002 residues) expressed in mammalian expression system assessed as residual activity at 1 uM by Kinomescan method relative to control
[18] = molecular target: Serine/threonine-protein kinase MARK2 (Homo sapiens) (UniProt Q7KZI7); test: Inhibition of wild-type human partial length MARK2 (M1 to R450 residues) expressed in bacterial expression system assessed as residual activity at 1 uM by Kinomescan method relative to control
[19] = molecular target: Serine/threonine-protein kinase RIO1 (Homo sapiens) (UniProt Q9BRS2); test: Inhibition of wild-type human full length RIOK1 (M1 to K568 residues) expressed in bacterial expression system assessed as residual activity at 1 uM by Kinomescan method relative to control
[20] = molecular target: Serine/threonine-protein kinase mTOR (Homo sapiens) (UniProt P42345); test: Inhibition of wild-type human partial length MTOR (L1382 to W2549 residues) expressed in mammalian expression system assessed as residual activity at 1 uM by Kinomescan method relative to control
[21] = molecular target: Hepatocyte growth factor receptor (Homo sapiens) (UniProt P08581); test: Inhibition of wild-type human partial length MET (D1010 to S1367 residues) expressed in bacterial expression system assessed as residual activity at 1 uM by Kinomescan method relative to control
[22] = system: Mast/stem cell growth factor receptor Kit (Homo sapiens), P10721 [L576P]; test: Inhibition of human partial length KIT L576P mutant (Y545 to D952 residues) expressed in bacterial expression system assessed as residual activity at 1 uM by Kinomescan method relative to control
[23] = molecular target: Serine/threonine-protein kinase STK11 (Homo sapiens) (UniProt Q15831); test: Inhibition of wild-type human full length LKB1 (M1 to Q433 residues) expressed in bacterial expression system assessed as residual activity at 1 uM by Kinomescan method relative to control
[24] = molecular target: Beta-adrenergic receptor kinase 1 (Homo sapiens) (UniProt P25098); test: Inhibition of wild-type human full length GRK2 (M1 to L689 residues) expressed in mammalian expression system assessed as residual activity at 1 uM by Kinomescan method relative to control
[25] = molecular target: Serine/threonine-protein kinase Nek4 (Homo sapiens) (UniProt P51957); test: Inhibition of wild-type human full length NEK4 (M1 to F841 residues) expressed in mammalian expression system assessed as residual activity at 1 uM by Kinomescan method relative to control

Compound: C=CC(=O)Nc1cc(Nc2cc(-c3cccc(NC(=O)c4ccc(C(C)(C)C)cc4)c3C)cn(C)c2=O)ccc1C(=O)N1CCOCC1
- Activity [1]: 98%
- Activity [2]: 94%
- Activity [3]: 100%
- Activity [4]: 100%
- Activity [5]: 100%
- Activity [6]: 95%
- Activity [7]: 100%
- Activity [8]: 87%
- Activity [9]: 95%
- Activity [10]: 100%
- IC50 [11]: > 10 µM
- Activity [12]: 84%
- Activity [13]: 100%
- Activity [14]: 98%
- Activity [15]: 100%
- Activity [16]: 100%
- Activity [17]: 100%
- Activity [18]: 99%
- Activity [19]: 100%
- Activity [20]: 100%
- Activity [21]: 96%
- Activity [22]: 97%
- Activity [23]: 98%
- Activity [24]: 100%
- Activity [25]: 100%
